Reference: the supplement of paper PMC10331698
± gives the standard deviation of the averaged measurements.

Columns and labels:
Assay in all cases: level (log10 ratio to DMSO vehicle control); higher = higher biomarker level / cell amount than vehicle control
[1] = compound: C=C(C)C(=O)OCCC(F)(F)C(F)(F)C(F)(F)C(F)(F)C(F)(F)C(F)(F)C(F)(F)C(F)(F)F [8:2 Fluorotelomer methacrylate] (in DMSO)
Protocol: (§1)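 BioMAP Diversity Plus panel of 12 human primary cell co-culture systems (3C, 4H, LPS, SAg, BT, BF4T, BE3C, CASM3C, HDF3CGF, KF3CT, MyoF, Mphg). Compounds were added 1 h before stimulation and left for 24 h (MyoF 48 h; BT 72 h for soluble read-outs or 6 d for IgG). Biomarkers were read by ELISA, cytotoxicity by SRB, PBMC viability and proliferation by Alamar Blue. Each well value was divided by the mean of 8 DMSO control wells on the same plate and log10 transformed; duplicate blinded samples were tested at 4 concentrations.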

[2] = compound: O=C(O)CCC(F)(C(F)(F)F)C(F)(F)F [4,4-bis(Trifluoromethyl)-4-fluoropropanoic acid] (in DMSO)
Protocol: as §1

[3] = compound: CN(C(=O)C(F)(F)C(F)(F)C(F)(F)F)[Si](C)(C)C [N-Methyl-N-trimethylsilylheptafluorobutyramide] (in DMSO)
Protocol: as §1

[4] = compound: NS(=O)(=O)C(F)(F)C(F)(F)C(F)(F)C(F)(F)C(F)(F)C(F)(F)C(F)(F)C(F)(F)F [Perfluorooctanesulfonamide] (in DMSO)
Protocol: as §1

[5] = compound: OCC(F)(F)C(F)(F)C(F)(F)C(F)F [1H,1H,5H-Perfluoropentanol] (in DMSO)
Protocol: as §1

Octafluoroadipic acid = compound: O=C(O)C(F)(F)C(F)(F)C(F)(F)C(F)(F)C(=O)O [Octafluoroadipic acid] (in DMSO)
Protocol: as §1

[6] = compound: O=C(O)C(F)(F)OC(F)(F)C(F)(F)OC(F)(F)C(F)(F)OC(F)(F)C(F)(F)C(F)(F)C(F)(F)F [Perfluoro-3,6,9-trioxatridecanoic acid] (in DMSO); details: 6700 nM
Protocol: as §1

Perfluorononanoic acid = compound: O=C(O)C(F)(F)C(F)(F)C(F)(F)C(F)(F)C(F)(F)C(F)(F)C(F)(F)C(F)(F)F [Perfluorononanoic acid] (in DMSO)
Protocol: as §1

| Test System | level (log10) ([1]; 6700 nM) | level (log10) ([1]; 20000 nM) | level (log10) ([2]; 6700 nM) | level (log10) ([2]; 20000 nM) | level (log10) ([2]; 60000 nM) | level (log10) ([3]; 6700 nM) | level (log10) ([3]; 20000 nM) | level (log10) ([3]; 60000 nM) | level (log10) ([4]; 6700 nM) | level (log10) ([4]; 20000 nM) | level (log10) ([5]; 6700 nM) | level (log10) ([5]; 20000 nM) | level (log10) ([5]; 60000 nM) | level (log10) (Octafluoroadipic acid; 6700 nM) | level (log10) (Octafluoroadipic acid; 20000 nM) | level (log10) (Octafluoroadipic acid; 60000 nM) | level (log10) [6] | level (log10) (Perfluorononanoic acid; 6700 nM) | level (log10) (Perfluorononanoic acid; 20000 nM) |
| --- | --- | --- | --- | --- | --- | --- | --- | --- | --- | --- | --- | --- | --- | --- | --- | --- | --- | --- | --- |
| BT:sIL-17F | 0.032 ± 0.037 | 0.1 ± 0.023 | 0.064 ± 0.13 | 0.0385 ± 0.087 | -0.005 ± 0.0085 | -0.017 ± 0.027 | -0.008 ± 0.13 | 0.0005 ± 0.07 | -0.0365 ± 0.084 | -0.0785 ± 0.11 | -0.0035 ± 0.067 | -0.051 ± 0.035 | -0.013 ± 0.25 | -0.027 ± 0.0028 | -0.009 ± 0.078 | 0.0275 ± 0.076 | 0.018 ± 0.027 | -0.0305 ± 0.0064 | 0.002 ± 0.15 |
| BT:sTNF-alpha | -0.031 ± 0.055 | -0.049 ± 0.0042 | -0.0135 ± 0.22 | -0.051 ± 0.12 | -0.031 ± 0.16 | -0.014 ± 0.062 | -0.0875 ± 0.054 | 0.079 ± 0.13 | -0.045 ± 0.13 | -0.11 ± 0.15 | -0.0315 ± 0.0092 | -0.051 ± 0.016 | -0.003 ± 0.068 | 0.0535 ± 0.17 | 0.028 ± 0.17 | 0.116 ± 0.02 | -0.0035 ± 0.057 | -0.002 ± 0.038 | 0.0115 ± 0.073 |
| LPS:CCL2/MCP-1 | -0.0045 ± 0.047 | 0.042 ± 0.0085 | 0.024 ± 0.037 | 0 ± 0.014 | 0.0155 ± 0.07 | -0.0085 ± 0.0021 | -0.012 ± 0.013 | -0.0005 ± 0.023 | -0.0035 ± 0.013 | 0.0165 ± 0.0021 | -0.006 ± 0.0071 | 0.004 ± 0.014 | 0.007 ± 0.04 | -0.0015 ± 0.044 | -0.0045 ± 0.026 | 0.0205 ± 0.0078 | -0.0325 ± 0.023 | -0.0035 ± 0.033 | 0.0165 ± 0.016 |
| LPS:CD40 | 0.0345 ± 0.0092 | -0.028 ± 0.11 | 0.005 ± 0.027 | -0.0115 ± 0.021 | -0.0385 ± 0.0035 | -0.023 ± 0.027 | -0.0065 ± 0.011 | -0.0325 ± 0.025 | -0.0635 ± 0.018 | -0.115 ± 0.0042 | -0.017 ± 0.016 | -0.0085 ± 0.005 | 0.0145 ± 0.015 | -0.0035 ± 0.04 | -0.005 ± 0.0071 | -0.0245 ± 0.0064 | -0.015 ± 0.024 | -0.0305 ± 0.019 | -0.039 ± 0.011 |
| LPS:CD62E/E-Selectin | 0.028 ± 0.0014 | 0.027 ± 0.035 | 0.0115 ± 0.023 | 0.0055 ± 0.013 | -0.007 ± 0.016 | 0.0095 ± 0.026 | 0.002 ± 0.014 | 0.0105 ± 0.054 | -0.015 ± 0.023 | 0.018 ± 0.016 | -0.0165 ± 0.00071 | 0.0125 ± 0.0064 | 0.0055 ± 0.022 | 0.002 ± 0.023 | -0.008 ± 0.0057 | 0.0085 ± 0.022 | -0.024 ± 0.0057 | -0.009 ± 0.013 | -0.01 ± 0.0085 |
| LPS:CD69 | -0.0425 ± 0.04 | -0.0355 ± 0.05 | -0.0145 ± 0.077 | -0.0265 ± 0.015 | -0.045 ± 0.025 | -0.004 ± 0.011 | -0.013 ± 0.041 | 0.004 ± 0.011 | -0.0475 ± 0.0064 | -0.13 | -0.02 ± 0.011 | -0.0015 ± 0.013 | 0.0175 ± 0.0078 | 0.0545 ± 0.076 | 0.0595 ± 0.047 | 0.0515 ± 0.064 | 0.013 ± 0.0014 | -0.0275 ± 0.022 | -0.038 ± 0.013 |
| LPS:CD106/VCAM-1 | -0.032 ± 0.054 | -0.0515 ± 0.049 | -0.016 ± 0.034 | -0.0255 ± 0.0092 | -0.023 ± 0.021 | -0.0165 ± 0.0021 | -0.0035 ± 0.005 | -0.004 ± 0.041 | 0.0075 ± 0.0035 | 0.0115 ± 0.016 | 0.007 ± 0.014 | -0.008 ± 0.0042 | 0.0095 ± 0.0035 | -0.0235 ± 0.037 | -0.0175 ± 0.025 | -0.017 ± 0.048 | 0.001 ± 0.016 | -0.017 ± 0.014 | -0.002 ± 0.0057 |
| LPS:CD141/Thrombomodulin | -0.021 ± 0.038 | -0.064 ± 0.0099 | -0.0025 ± 0.0035 | -0.009 ± 0.028 | -0.002 ± 0.0099 | -0.0125 ± 0.0064 | -0.014 ± 0.0085 | -0.018 ± 0.014 | 0.037 ± 0.072 | 0.0785 ± 0.066 | -0.0125 ± 0.0035 | 0.008 ± 0.02 | 0.023 ± 0.0099 | -0.014 ± 0.0014 | -0.0135 ± 0.028 | 0.006 ± 0.014 | -0.015 ± 0.0028 | -0.018 ± 0.048 | -0.018 ± 0.017 |
| LPS:CD142/Tissue Factor | 0.0615 ± 0.063 | 0.0315 ± 0.083 | 0.045 ± 0.031 | 0.038 ± 0.059 | 0.02 ± 0.051 | 0.015 ± 0.065 | 0.0255 ± 0.1 | -0.0085 ± 0.1 | -0.024 ± 0.047 | -0.043 ± 0.0071 | -0.001 ± 0.021 | 0.017 ± 0.03 | 0.023 ± 0.021 | -0.0105 ± 0.022 | 0.02 ± 0.034 | 0.0215 ± 0.0078 | -0.091 ± 0.021 | 0.01 ± 0.016 | -0.001 ± 0.02 |
| LPS:CXCL8/IL-8 | -0.037 ± 0.05 | -0.0225 ± 0.076 | 0.011 ± 0.0028 | 0.007 ± 0.02 | 0.0135 ± 0.054 | 0.008 ± 0.0028 | 0.0245 ± 0.018 | 0.016 ± 0.052 | 0.005 ± 0.016 | -0.008 ± 0.0014 | 0.004 ± 0.0057 | 0.0185 ± 0.005 | 0.001 ± 0.025 | 0.0015 ± 0.032 | -0.0035 ± 0.054 | 0.0415 ± 0.1 | -0.0465 ± 0.061 | 0.024 ± 0.013 | 0.0355 ± 0.0092 |
| LPS:IL-1alpha | 0.074 ± 0.0057 | 0.0625 ± 0.077 | 0.009 ± 0.072 | 0.0215 ± 0.022 | 0.0215 ± 0.032 | -0.004 ± 0.041 | 0.017 ± 0.0071 | 0.02 ± 0.0028 | -0.0195 ± 0.025 | -0.013 ± 0.0071 | -0.048 ± 0.021 | -0.0295 ± 0.0064 | -0.003 ± 0.0099 | -0.003 ± 0.0028 | 0.017 ± 0.045 | 0.029 ± 0.047 | -0.038 ± 0.013 | -0.0315 ± 0.0064 | -0.03 ± 0.014 |
| LPS:M-CSF | -0.019 ± 0.021 | -0.0635 ± 0.00071 | -0.0345 ± 0.0021 | -0.0145 ± 0.029 | -0.0245 ± 0.00071 | -0.0075 ± 0.0092 | -0.0135 ± 0.012 | -0.0045 ± 0.079 | -0.0035 ± 0.032 | 0.05 ± 0.04 | -0.01 ± 0.0014 | -0.0015 ± 0.029 | 0.0125 ± 0.049 | 0.002 ± 0.0099 | 0.0175 ± 0.023 | 0.0005 ± 0.00071 | 0.009 ± 0.018 | -0.001 ± 0.045 | 0.035 ± 0.024 |
| LPS:SRB | -0.0085 ± 0.016 | -0.0005 ± 0.023 | -0.0045 ± 0.0064 | -0.0035 ± 0.00071 | 0.0135 ± 0.0092 | 0.0045 ± 0.012 | 0.0045 ± 0.0078 | 0 ± 0.0028 | 0.009 ± 0.0057 | -0.0625 ± 0.0078 | -0.017 ± 0.0014 | -0.0115 ± 0.00071 | -0.0005 ± 0.0078 | 0.0015 ± 0.0064 | 0.004 ± 0.0085 | -0.0055 ± 0.0064 | 0.008 ± 0.0071 | -0.0065 ± 0.00071 | 0.0045 ± 0.0078 |
| LPS:sPGE2 | -0.038 ± 0.013 | -0.058 ± 0.048 | -0.0445 ± 0.019 | -0.018 ± 0.033 | 0.011 ± 0.0085 | 0.0035 ± 0.011 | 0.0095 ± 0.044 | -0.023 ± 0.057 | 0.07 ± 0.011 | 0.0945 ± 0.012 | -0.071 ± 0.011 | -0.027 ± 0.018 | -0.0175 ± 0.036 | -0.002 ± 0.044 | -0.023 ± 0.0028 | -0.014 ± 0.017 | -0.0245 ± 0.013 | -0.0695 ± 0.00071 | -0.144 ± 0.0064 |
| LPS:sTNF-alpha | 0.0165 ± 0.0064 | -0.007 ± 0.017 | -0.046 ± 0.045 | -0.013 ± 0.05 | -0.003 ± 0.018 | -0.004 ± 0.0042 | -0.002 ± 0.011 | -0.0065 ± 0.015 | 0.007 ± 0.0042 | -0.0245 ± 0.00071 | 0.006 ± 0.041 | 0.0065 ± 0.044 | 0.01 ± 0.028 | -0.0035 ± 0.0035 | 0.0155 ± 0.005 | 0.0125 ± 0.018 | -0.019 ± 0.024 | -0.0115 ± 0.028 | 0.0115 ± 0.025 |
